Data reported in ChEMBL document CHEMBL1201862, “PubChem BioAssay data set” (2004).
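Following 48 hours of exposure in 96-well plates, responses at five concentrations were used to interpolate endpoints linearly. Abbreviation: GI50, concentration required for 50% inhibition of growth.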 Activity calls are given as the source filed them. No stated cut-off is given here; in the data, active = GI50 up to about 1.1 µM and inactive = higher.

How the values were obtained:
Experiment in all cases: DTP human tumour cell line panel, 48 h
IGROV-1 = tested on: IGROV-1
SK-MEL-5 = tested on: SK-MEL-5
NCI-H460 = tested on: NCI-H460
COLO 205 = tested on: COLO 205
SK-OV-3 = tested on: SK-OV-3
HCC 2998 = tested on: HCC 2998
CCRF-CEM = tested on: CCRF-CEM
HT-29 = tested on: HT-29
SN12C = tested on: SN12C
Malme-3M = tested on: Malme-3M
A549 = tested on: A549
OVCAR-5 = tested on: OVCAR-5
SW-620 = tested on: SW-620
UACC-62 = tested on: UACC-62
NCI/ADR-RES = tested on: NCI/ADR-RES
HOP-62 = tested on: HOP-62
CAKI-1 = tested on: CAKI-1
DU-145 = tested on: DU-145
PC-3 = tested on: PC-3

SMILES | GI50 (IGROV-1) | GI50 (SK-MEL-5) | GI50 (NCI-H460) | GI50 (COLO 205) | GI50 (SK-OV-3) | GI50 (HCC 2998) | GI50 (CCRF-CEM) | GI50 (HT-29) | GI50 (SN12C) | GI50 (Malme-3M) | GI50 (A549) | GI50 (OVCAR-5) | GI50 (SW-620) | GI50 (UACC-62) | GI50 (NCI/ADR-RES) | GI50 (HOP-62) | GI50 (CAKI-1) | GI50 (DU-145) | GI50 (PC-3)
CCOC(=O)C1=C(C)CC2C(=O)OC(=O)C2C1(C)C (configuration not stated) | > 100 µM (inactive) | > 100 µM (inactive) | > 100 µM (inactive) | > 100 µM (inactive) | > 100 µM (inactive) | > 100 µM (inactive) | > 100 µM (inactive) | > 100 µM (inactive) | > 100 µM (inactive) | > 100 µM (inactive) | > 100 µM (inactive) | > 100 µM (inactive) | > 100 µM (inactive) |  |  |  |  |  | 
CC(=O)C1C(=O)C(=O)N(c2cccc(C)c2C)C1=O (configuration not stated) | > 100 µM (inactive) | > 100 µM (inactive) |  | > 100 µM (inactive) | > 100 µM (inactive) |  |  | > 100 µM (inactive) | > 100 µM (inactive) |  | > 100 µM (inactive) | > 100 µM (inactive) |  | > 100 µM (inactive) | > 100 µM (inactive) | > 100 µM (inactive) | > 100 µM (inactive) | > 100 µM (inactive) | > 100 µM (inactive)
S=C(N/N=C\C=N/NC(=S)N1CCCCC1)N1CCCCC1 | 0.664 µM (active) | 0.37 µM (active) | < 0.0151 µM (active) | 0.592 µM (active) | 0.692 µM (active) |  |  | 0.163 µM (active) | 0.723 µM (active) | 0.321 µM (active) | 0.107 µM (active) | > 29.3 µM (inactive) | 0.0977 µM (active) | 0.594 µM (active) | 0.267 µM (active) | 0.203 µM (active) | 0.619 µM (active) | 0.202 µM (active) | 0.387 µM (active)
COC(=O)CCC(C)[C@H]1CCC2C3C(C[C@H](OC(C)=O)[C@@]21C)[C@@]1(C)CCC2(C[C@H]1C[C@H]3OC(C)=O)OOC1(CCCCCCC1)OO2 (some centres not stated) | 6.37 µM (inactive) | 6.5 µM (inactive) | 3.24 µM (inactive) | 7.62 µM (inactive) | > 100 µM (inactive) |  | 4.97 µM (inactive) | 9.08 µM (inactive) | 23.3 µM (inactive) | 9.89 µM (inactive) | 4.56 µM (inactive) | > 100 µM (inactive) | 6.3 µM (inactive) |  | > 100 µM (inactive) | 4.99 µM (inactive) | 2.55 µM (inactive) | 6.58 µM (inactive) | 3.4 µM (inactive)
O=C(CC(C(=O)c1ccco1)c1ccco1)c1ccco1 (configuration not stated) | > 100 µM (inactive) | > 100 µM (inactive) | > 100 µM (inactive) | > 100 µM (inactive) | > 100 µM (inactive) | > 100 µM (inactive) | 71.1 µM (inactive) | > 100 µM (inactive) | > 100 µM (inactive) |  | > 100 µM (inactive) | > 100 µM (inactive) | > 100 µM (inactive) | > 100 µM (inactive) | > 100 µM (inactive) | > 100 µM (inactive) | > 100 µM (inactive) | > 100 µM (inactive) | 
CC(C)=CCC/C(C)=C/CCC1(C)C2COC(=O)C21 (configuration not stated) | > 100 µM (inactive) | 20.7 µM (inactive) | 36.2 µM (inactive) | 48.3 µM (inactive) | > 100 µM (inactive) | > 100 µM (inactive) | 26.9 µM (inactive) | 70.8 µM (inactive) | 77.3 µM (inactive) | > 100 µM (inactive) |  | > 100 µM (inactive) | 19.3 µM (inactive) | > 100 µM (inactive) |  | > 100 µM (inactive) | > 100 µM (inactive) | 60.5 µM (inactive) | 44.4 µM (inactive)
CC1CC2C(=O)NC(=O)C2c2[nH]c3ccccc3c21 (configuration not stated) | > 100 µM (inactive) | 70 µM (inactive) | > 100 µM (inactive) | > 100 µM (inactive) | > 100 µM (inactive) |  | > 100 µM (inactive) | > 100 µM (inactive) | 78.7 µM (inactive) | > 100 µM (inactive) | > 100 µM (inactive) | > 100 µM (inactive) | > 100 µM (inactive) |  |  | 74 µM (inactive) | 42.8 µM (inactive) |  | 
CC1CC2(CCC1OCc1ccccc1)OCCO2 (configuration not stated) | > 100 µM (inactive) | > 100 µM (inactive) | > 100 µM (inactive) | > 100 µM (inactive) | > 100 µM (inactive) | > 100 µM (inactive) | > 100 µM (inactive) | > 100 µM (inactive) | > 100 µM (inactive) | > 100 µM (inactive) | > 100 µM (inactive) |  | > 100 µM (inactive) | > 100 µM (inactive) |  | > 100 µM (inactive) | > 100 µM (inactive) |  | 
Cc1c(C(=O)O)c2cc3ccccc3cc2c(=O)n1C | > 10 µM (inactive) |  | > 10 µM (inactive) |  | > 10 µM (inactive) | > 10 µM (inactive) |  | > 10 µM (inactive) | > 10 µM (inactive) | > 10 µM (inactive) | > 10 µM (inactive) | > 10 µM (inactive) | > 10 µM (inactive) | > 10 µM (inactive) | > 10 µM (inactive) |  |  |  | > 10 µM (inactive)
NNC(=S)N/N=C(/C(=O)Nc1ccc(Cl)c(Cl)c1)C(C1OC(=O)c2ccccc21)[N+](=O)[O-] (configuration not stated) | 54.5 µM (inactive) | > 100 µM (inactive) | > 100 µM (inactive) |  | > 100 µM (inactive) | > 100 µM (inactive) | 52.7 µM (inactive) | > 100 µM (inactive) | > 100 µM (inactive) | > 100 µM (inactive) | > 100 µM (inactive) | > 100 µM (inactive) | > 100 µM (inactive) | > 100 µM (inactive) | > 100 µM (inactive) | > 100 µM (inactive) | > 100 µM (inactive) |  | > 100 µM (inactive)
Oc1ccc(Cc2nccc3cc(O)c(O)cc23)cc1O | 33 µM (inactive) | 28.8 µM (inactive) | 29.6 µM (inactive) | 21.6 µM (inactive) | 66.8 µM (inactive) |  | 17.9 µM (inactive) | 53.5 µM (inactive) | 29.9 µM (inactive) | > 100 µM (inactive) | 54.3 µM (inactive) | 48.9 µM (inactive) | 36.1 µM (inactive) | 33.4 µM (inactive) | > 100 µM (inactive) | 47.4 µM (inactive) | 58.3 µM (inactive) | 66.5 µM (inactive) | 52.6 µM (inactive)
COC(=O)C1C(=O)NC2(C)CC1c1ccccc1O2 (configuration not stated) | > 100 µM (inactive) | > 100 µM (inactive) | > 100 µM (inactive) |  | > 100 µM (inactive) | > 100 µM (inactive) | > 100 µM (inactive) | > 100 µM (inactive) | > 100 µM (inactive) | > 100 µM (inactive) | > 100 µM (inactive) | > 100 µM (inactive) | > 100 µM (inactive) | > 100 µM (inactive) |  | > 10 µM (inactive) | > 100 µM (inactive) |  | 
O=[N+]([O-])c1ccc2c(c1)Cc1cc(/N=C/c3ccc4c(c3)OCO4)ccc1-2 | > 100 µM (inactive) | > 100 µM (inactive) | > 100 µM (inactive) | > 100 µM (inactive) | > 100 µM (inactive) |  | 61.9 µM (inactive) | > 100 µM (inactive) | > 100 µM (inactive) | > 100 µM (inactive) | > 100 µM (inactive) | > 100 µM (inactive) | > 100 µM (inactive) | > 100 µM (inactive) | > 100 µM (inactive) | > 100 µM (inactive) | > 100 µM (inactive) | > 100 µM (inactive) | > 100 µM (inactive)
Cc1ccc(S(=O)(=O)Nn2c(-c3ccccc3)c(C#N)c(-c3ccc(Cl)cc3)c(C#N)c2=O)cc1 |  | 15.2 µM (inactive) | 27.9 µM (inactive) | 24.5 µM (inactive) | 35.4 µM (inactive) | 23.7 µM (inactive) | 20.4 µM (inactive) |  | 35.7 µM (inactive) |  | 26.9 µM (inactive) | 47 µM (inactive) | 30.4 µM (inactive) | 16.1 µM (inactive) |  | 30.1 µM (inactive) | 55.7 µM (inactive) |  | 26.2 µM (inactive)
C/C(=N\N=C(\N)OB(F)F)c1ccccn1 | 64.3 µM (inactive) | > 100 µM (inactive) | 40.8 µM (inactive) | > 100 µM (inactive) | > 10 µM (inactive) | > 100 µM (inactive) | 43.4 µM (inactive) | 47.3 µM (inactive) | > 100 µM (inactive) | > 100 µM (inactive) | > 100 µM (inactive) | > 100 µM (inactive) | > 100 µM (inactive) | 82.2 µM (inactive) | > 100 µM (inactive) | 37.5 µM (inactive) | > 100 µM (inactive) | > 100 µM (inactive) | 
CN1Cc2cc3cc4c(cc3nc2N(C)C1)OCCO4 | > 100 µM (inactive) | > 100 µM (inactive) | > 100 µM (inactive) | > 100 µM (inactive) | > 100 µM (inactive) | > 100 µM (inactive) | > 100 µM (inactive) | > 100 µM (inactive) | > 100 µM (inactive) | > 100 µM (inactive) | > 100 µM (inactive) | > 100 µM (inactive) | > 100 µM (inactive) | > 100 µM (inactive) | > 100 µM (inactive) | > 100 µM (inactive) | > 100 µM (inactive) |  | > 100 µM (inactive)
O=S(=O)(O)n1ccnc1 | > 100 µM (inactive) | > 100 µM (inactive) | > 100 µM (inactive) | > 100 µM (inactive) | > 100 µM (inactive) |  |  | > 100 µM (inactive) | > 100 µM (inactive) | > 100 µM (inactive) | > 100 µM (inactive) | > 100 µM (inactive) | > 100 µM (inactive) | > 100 µM (inactive) | > 100 µM (inactive) | > 100 µM (inactive) | > 100 µM (inactive) | > 100 µM (inactive) | > 100 µM (inactive)
